US7932262B2 (Novartis AG, priority 2006, dated 2011)
Like-named read-outs stand apart in the source and are kept apart here.

How the values were obtained:
PDK1 kinase = molecular target: T1, PDK1 kinase (Homo sapiens, UniProt O15530); experiment: PDK1 Kinase Alpha Screen Assay; assay type: biochemical; conditions: read-out: PDK1 IC50
T1 sequence (O15530 1-556): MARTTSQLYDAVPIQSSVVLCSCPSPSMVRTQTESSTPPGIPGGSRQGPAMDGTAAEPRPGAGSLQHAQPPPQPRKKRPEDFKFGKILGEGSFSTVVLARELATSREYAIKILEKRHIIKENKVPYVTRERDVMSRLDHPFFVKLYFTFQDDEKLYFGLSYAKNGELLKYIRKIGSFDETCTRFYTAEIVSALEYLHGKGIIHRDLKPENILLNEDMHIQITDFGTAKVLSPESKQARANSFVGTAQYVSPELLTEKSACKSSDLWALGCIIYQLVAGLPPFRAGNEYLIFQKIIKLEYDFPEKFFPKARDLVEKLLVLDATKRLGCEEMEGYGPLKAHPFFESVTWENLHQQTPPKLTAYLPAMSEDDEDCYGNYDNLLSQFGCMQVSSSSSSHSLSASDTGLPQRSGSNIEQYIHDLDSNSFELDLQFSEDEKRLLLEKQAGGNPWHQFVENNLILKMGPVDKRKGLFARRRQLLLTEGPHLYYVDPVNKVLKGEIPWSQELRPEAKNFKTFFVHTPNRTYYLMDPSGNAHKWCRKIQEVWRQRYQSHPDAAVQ
Method in brief: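 Test compounds were incubated with PDK1 kinase, 10 uM ATP and 50 nM biotinylated peptide substrate for 3-18 hours at pH 7.5 with 2.5% DMSO. Peptide phosphorylation was then detected by AlphaScreen proximity luminescence using a phospho-(Ser/Thr) PKA substrate antibody.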

A2780 cells = experiment: Cell Proliferation Assay (Cell Titer Glo), A2780; assay type: cell-based; conditions: Homo sapiens, read-out: CPEC50 A2780
Protocol: IV. Cell Proliferation Assay Protocol:
A2780, PC-3, or PC3MM cells were seeded at 1000 cells/well in 100 μL/well (10.000 cells/mL) growth media in 96-well plates. Cells were allowed to adhere to the bottom of plates for 3-5 hours in a 37° C. 5% CO2 incubator. Compounds were dissolved in DMSO and then transferred to the cell plates. The cells were incubated with the compounds for 3 days in a 37° C. 5% CO2 incubator. The growth medium containing the compounds was then removed from the cells and fresh medium was added, followed by 100 μL of Cell Titer Glo assay reagent (Promega). This mixture was shaken for 1 minute and then incubated without shaking for 10 minutes. Activity determinations for the compounds were made by detection on a Trilux Instrument.

[1] = cell proliferation, A2780 cells
[2] = Cell Proliferation Assay, A2780
[3] = 72 h, A2780 cells, 3 days incubation

| SMILES | IC50 (PDK1 kinase; PDK1 Kinase Alpha Screen Assay) [µM] | EC50 (A2780 cells; [2]) [µM] | IC50 (PDK1 kinase) [µM] | EC50 (A2780 cells; [3]) [µM] | further results |
| --- | --- | --- | --- | --- | --- |
| NS(=O)(=O)c1ccc(Nc2ncc3ccc(-c4ccc(N5CCCC5)nc4)cc3n2)cc1 [Compound 880, 4-(7-(6-(pyrrolidin-1-yl)pyridin-3-yl)quinazolin-2-ylamino)benzenesulfonamide] | < 5 | – | – | – | EC50 (A2780 cells; [1]): 5 to 10 µM |
| NS(=O)(=O)c1ccc(Nc2ncc3cccc(C(=O)O)c3n2)cc1 [Compound 622, 2-(4-sulfamoylphenylamino)quinazoline-8-carboxylic acid] | 5 to 10 | 5 to 10 | – | – | – |
| NC(=O)c1cccc(COc2cccc3cnc(Nc4ccc(S(N)(=O)=O)cc4)nc23)c1 [Compound 513, 3-((2-(4-sulfamoylphenylamino)quinazolin-8-yloxy)methyl)benzamide] | < 5 | < 5 | – | – | – |
| COc1cccc(Oc2cccc3cnc(Nc4ccc(S(N)(=O)=O)cc4)nc23)c1 [Compound 406, 4-(8-(3-methoxyphenoxy)quinazolin-2-ylamino)benzenesulfonamide] | < 5 | < 5 | – | – | – |
| NS(=O)(=O)c1ccc(Nc2ncc3cccc(-c4ccccc4)c3n2)cc1 [Compound 110, 4-(8-Phenyl-quinazolin-2-ylamino)-benzenesulfonamide] | – | – | < 5 | < 5 | – |
| CC(C)Oc1cccc2cnc(Nc3cccc(S(N)(=O)=O)c3)nc12 [Compound 556, 3-(8-isopropoxyquinazolin-2-ylamino)benzenesulfonamide] | < 5 | < 5 | – | – | – |
| NS(=O)(=O)c1ccc(Nc2ncc3cccc(C(=O)N4CCCC4)c3n2)cc1 [Compound 113, 4-[8-(Pyrrolidine-1-carbonyl)-quinazolin-2 ylamino]-benzenesulfonamide] | – | – | < 5 | 5 to 10 | – |
| CC(C)CCn1cc(-c2ccc3cnc(Nc4ccc(S(N)(=O)=O)cc4)nc3c2)cn1 [Compound 883, 4-(7-(1-isopentyl-1H-pyrazol-4-yl)quinazolin-2-ylamino)benzenesulfonamide] | < 5 | – | – | – | EC50 (A2780 cells; [1]): < 5 µM |
| NS(=O)(=O)c1ccc(Nc2ncc3cccc(CNCCc4cnc[nH]4)c3n2)cc1 [Compound 918, 4-(8-((2-(1H-imidazol-5-yl)ethylamino)methyl)quinazolin-2-ylamino)benzenesulfonamide] | – | – | < 5 | – | EC50 (A2780 cells; A2780 cells): 5 to 10 µM |
| COc1ccc2cnc(Nc3ccc(S(N)(=O)=O)cc3)nc2c1 [Compound 629, 4-(7-methoxyquinazolin-2-ylamino)benzenesulfonamide] | < 5 | < 5 | – | – | – |
| NS(=O)(=O)c1ccc(Nc2ncc3cccc(-c4ccnc(NCCN5CCCC5)c4)c3n2)cc1 [Compound 102, 4-{8-[2-(2-Pyrrolidin-1-yl-ethylamino)-pyridin-4-yl]-quinazolin-2-ylamino}-benzenesulfonamide] | – | – | < 5 | < 5 | – |
| NS(=O)(=O)c1ccc(Nc2ncc3cc(Br)cc(O)c3n2)cc1 [Compound 388, 4-(6-bromo-8-hydroxyquinazolin-2-ylamino)benzenesulfonamide] | < 5 | < 5 | – | – | – |
| CC(C)CN1CC(Oc2cccc3cnc(Nc4ccc(S(N)(=O)=O)cc4)nc23)C1 [Compound 49, 4-[8-(1-Isobutyl-azetidin-3-yloxy)-quinazolin-2-ylamino]-benzenesulfonamide] | – | – | < 5 | < 5 | – |
| CC(=O)c1ccc(-c2cccc3cnc(Nc4ccc(S(N)(=O)=O)cc4)nc23)cc1 [Compound 88, 4-[8-(4-Acetyl-phenyl)-quinazolin-2-ylamino]-benzenesulfonamide] | – | – | < 5 | 5 to 10 | – |
| NS(=O)(=O)c1ccc(Nc2ncc3cccc(-c4cnoc4)c3n2)cc1 [Compound 103, 4-(8-Isoxazol-4-yl-quinazolin-2-ylamino)-benzenesulfonamide] | – | – | < 5 | < 5 | – |
| CC(C)Oc1cccc2cnc(Nc3ccc(C(N)=O)cc3)nc12 [Compound 506, 4-(8-isopropoxyquinazolin-2-ylamino)benzamide] | < 5 | < 5 | – | – | – |

| SMILES | IC50 (PDK1 kinase; PDK1 Kinase Alpha Screen Assay) [µM] | EC50 (A2780 cells; [2]) [µM] | IC50 (PDK1 kinase) [µM] | EC50 (A2780 cells; [3]) [µM] | further results |
| --- | --- | --- | --- | --- | --- |
| CC(=O)N1CCN(Cc2cccc3cnc(Nc4ccc(S(N)(=O)=O)cc4)nc23)CC1 [Compound 924, 4-(8-((4-acetylpiperazin-1-yl)methyl)quinazolin-2-ylamino)benzenesulfonamide] | – | – | < 5 | – | EC50 (A2780 cells; A2780 cells): < 5 µM |
| NS(=O)(=O)c1ccc(Nc2ncc3ccc(-c4cnccn4)c(OC4CCNCC4)c3n2)cc1 [Compound 877, 4-(8-(piperidin-4-yloxy)-7-(pyrazin-2-yl)quinazolin-2-ylamino)benzenesulfonamide] | < 5 | – | – | – | EC50 (A2780 cells; [1]): < 5 µM |
| NS(=O)(=O)c1ccc(Nc2ncc3cccc(-c4ccnc(N5CCS(=O)(=O)CC5)c4)c3n2)cc1 [Compound 107, 4-{8-[2-(1,1-Dioxo-1 lambda*6*-thiomorpholin-4-yl)-pyridin-4-yl]-quinazolin-2-ylamino}-benzenesulfonamide] | – | – | < 5 | < 5 | – |
| CC(=O)Nc1ccc(COc2cccc3cnc(Nc4ccc(S(N)(=O)=O)cc4)nc23)cc1 [Compound 514, N-(4-((2-(4-sulfamoylphenylamino)quinazolin-8-yloxy)methyl)phenyl)acetamide] | < 5 | < 5 | – | – | – |
| NS(=O)(=O)c1ccc(Nc2ncc3cccc(OCc4ccc5nnsc5c4)c3n2)cc1 [Compound 386, 4-(8-(benzo[d][1,2,3]thiadiazol-6-ylmethoxy)quinazolin-2-ylamino)benzenesulfonamide] | < 5 | < 5 | – | – | – |
| Nc1ccc(-c2ccc3cnc(Nc4ccc(S(N)(=O)=O)cc4)nc3c2)cn1 [Compound 130, 4-[7-(6-Amino-pyridin-3-yl)-quinazolin-2-ylamino]-benzenesulfonamide] | – | – | < 5 | < 5 | – |
| NS(=O)(=O)c1ccc(Nc2ncc3ccc(-c4ccncc4)c(OC4CCNCC4)c3n2)cc1 [Compound 20, 4-[8-(Piperidin-4-yl-oxy)-7-pyridin-4-yl-quinazolin-2-ylamino]-benzenesulfonamide] | – | – | < 5 | < 5 | – |
| CCN(CC)Cc1cccc2cnc(Nc3ccc(S(N)(=O)=O)cc3)nc12 [Compound 916, 4-(8-((diethylamino)methyl)quinazolin-2-ylamino)benzenesulfonamide] | – | – | < 5 | – | EC50 (A2780 cells; A2780 cells): < 5 µM |
| CNS(=O)(=O)c1ccc(Nc2ncc3cccc(OC(C)C)c3n2)cc1 [Compound 517, 4-(8-isopropoxyquinazolin-2-ylamino)-N-methylbenzenesulfonamide] | < 5 | < 5 | – | – | – |
| NS(=O)(=O)c1ccc(Nc2ncc3cc(F)cc(-c4ccc(N5CCCC5)nc4)c3n2)cc1 [Compound 890, 4-(6-fluoro-8-(6-(pyrrolidin-1-yl)pyridin-3-yl)quinazolin-2-ylamino)benzenesulfonamide] | < 5 | – | – | – | EC50 (A2780 cells; [1]): 5 to 10 µM |
| NS(=O)(=O)c1ccc(Nc2ncc3cccc(CN4CCOCC4)c3n2)cc1 [Compound 872, 4-(8-(morpholinomethyl)quinazolin-2-ylamino)benzenesulfonamide] | < 5 | – | – | – | EC50 (A2780 cells; [1]): < 5 µM |
| CN1CCN(Cc2cccc3cnc(Nc4ccc(S(N)(=O)=O)cc4)nc23)CC1 [Compound 871, 4-(8-((4-methylpiperazin-1-yl)methyl)quinazolin-2-ylamino)benzenesulfonamide] | < 5 | – | – | – | EC50 (A2780 cells; [1]): < 5 µM |
| CN1CCN(c2cc(-c3cccc4cnc(Nc5ccc(S(N)(=O)=O)cc5)nc34)ccn2)CC1 [Compound 106, 4-{8-[2-(4-Methyl-piperazin-1-yl)-pyridin-4-yl]-quinazolin-2-ylamino}-benzenesulfonamide] | – | – | < 5 | < 5 | – |
| NS(=O)(=O)c1ccc(Nc2ncc3cccc(OCCCn4c(=O)[nH]c5ccccc54)c3n2)cc1 [Compound 391, 4-(8-(3-(2-oxo-2,3-dihydro-1H-benzo[d]imidazol-1-yl)propoxy)quinazolin-2-ylamino)benzenesulfonamide] | < 5 | 5 to 10 | – | – | – |
| CN1CCC(c2c(O)ccc3cnc(Nc4ccc(S(N)(=O)=O)cc4)nc23)CC1 [Compound 870, 4-(7-hydroxy-8-(1-methylpiperidin-4-yl)quinazolin-2-ylamino)benzenesulfonamide] | < 5 | – | – | – | EC50 (A2780 cells; [1]): < 5 µM |
| Nc1ccc(-c2ccc3cnc(Nc4ccc(S(N)(=O)=O)cc4)nc3c2-c2ccc(N)nc2)cn1 [Compound 900, 4-(7,8-bis(6-aminopyridin-3-yl)quinazolin-2-ylamino)benzenesulfonamide] | < 5 | – | – | – | EC50 (A2780 cells; [1]): 5 to 10 µM |
